Data published in patent publication US20220386573A1, “HUMANIZED MOUSE MODEL WITH HUMAN IMMUNE SYSTEM” (Board of Regents, The University of Texas System, priority 2019, published 2022).

Legend:
Format in all cases: in vivo, mouse
NSGW41 H-Mice [1] = test: T-independent antibody response to DNP-CpG injection, E2 water vs plain water; conditions: DNP-CpG i.p.
From the text: While NP16-CGG evaluates the T cell-dependent response, the NSGW41 H-Mice immune system's ability to generate a T cell-independent antibody response was investigated. To do so, 16 mice NSGW41 H-Mice were segregated amongst the E2 and plain water groups and injected with Haptenated TLR9 ligand, DNP-CpG IP. […] Thus, NSGW41 H-Mice receiving E2 treatment can mount a mature antibody response to T-dependent and T-independent antigens complete with class-switched, high affinity antibody production and generation of both plasma and memory B cells.
(§1) Immunizations. NSGW41 H-Mice were injected intraperitoneally with 4-hydroxy-3-nitrophenylacetlyl (NP) conjugated to CGG (NP-CGG) (average: 16 NP molecule conjugated with one CGG molecule; Biosearch; 100 μg) in PBS (100 μl) with Alum (100 μl), or 2,4-Dinitrophenyl conjugated to CpG (DNP-CpG) (1 DNP molecule conjugated with one CpG molecule; Eurofins Genomics; 25 μg) in PBS (100 μl) without adjuvant. Sera were collected before injection and at specified time points after injection.
(§2) E2 Administration. NSGW41 H-Mice were given drinking water ad libitum containing 1 μM estradiol.
(§3) Detection of antibodies. Titers of IgM, IgD, IgG and IgA from in vitro culture supernatants of stimulated human and H-Mice B cells or titers of circulating and/or NP-binding/DNP-binding IgM, IgG, and IgA were measured using specific ELISAs. IgE were detected by sandwich ELISAs, using plates coated with anti-human IgE mAb. Serial two-fold diluted serum samples in PBS-(0.05%) Tween 20 (PBS-Tween 20) were added to the plates and incubated for 2 h at 23° C. After washing with PBS-Tween 20, biotin-detection antibody was added. After a final washing, IgE antibodies were detected using streptavidin-horseradish peroxidase. Antigen specific antibody titers are expressed as relative units (RU), defined as the dilution factor needed to reach 50% saturation binding, as calculated using GraphPad Prism® software (GraphPad).
(§4) Flow cytometry. Total B cells and PBMCs were subject to flow cytometry for pre-and-post isolation phenotypic analysis using the following surface markers and fluorophores: PEcy7-anti-human-CD19 (clone H1B19; Biolegend), PE-anti-human-CD27 (clone M-T271; Biolegend), BV421-anti-human-IgD (clone HB-7; Biolegend), FITC-anti-human-IgG (clone G18-145; BD Pharmingen), APC-anti-human-IgA (clone IS11-8E10; Miltenyi Biotec) and APC-Cy7-anti-IgM (clone MHM-88, Biolegend) and run on a BD LSRII (BD Biosciences) with the FACSDiva software (BD Biosciences). Data were analyzed using FlowJo software (FlowJo LLC).

NSGW41 H-Mice [2] = test: T-dependent antibody response to NP16-CGG immunization, E2 water vs plain water
From the text: To address the antibody response within NSGW41 H-Mice, 16 NSGW41 H-Mice were segregated into two groups of 8 mice each. One group was fed water containing estrogen (NSGW41 H-Mice) and the other plain water (huNSG^W41), each of them were then i.p. injected with NP16-CGG and Alum. The NSGW41 H-Mice were compared to Jackson Labs CD34^+ humanized mice (Jax CD34^+). […] However, the Jax CD34^+ had dramatically lower titers, correlating with reduced human reconstitution. […] (FIG. 3B).
E2 promotes myeloid lineage differentiation and B2 proliferation. Since estrogen administration had such a dynamic impact on the maturation of antibody response within NSGW41 H-Mice, the cellular composition and lymphoid architecture. B1/B2 cell ratios were compared across HIS platforms following immunization with NP-CGG. […] To investigate the formation of lymphoid follicles and germinal center structures, Jax CD34^+, huNSG, and NSGW41 H-Mice spleens were extracted 10 days post-immunization. […] These findings are supported by IHC staining of huCD20, huCD3 and huKI67 showing germinal center structures in NSGW41 H-Mice (FIG. 5D).
as §1, §2, §3, §4

NSGW41 H-Mice [3] = test: E2 administration in drinking water, tolerability; conditions: 1 μM estradiol or above, drinking water ad libitum
Protocol: as §2

[4] = NP16-CGG and alum i.p., E2-water vs plain water

C[C@]12CC[C@@H]3c4ccc(O)cc4CC[C@H]3[C@@H]1CC[C@@H]2O [E2, estradiol]
Class-switched IgG and IgA antibody production (NSGW41 H-Mice [1]): dynamically potentiated | DNP4-binding IgM, IgG and IgA titers (NSGW41 H-Mice [1]): significantly increased | Numbers of IgG+ and IgA+ B cells, splenic IgD-CD27+ memory B cells and bone marrow CD27+CD38+ plasmablasts/plasma cells (NSGW41 H-Mice [1]): increased numbers | Total IgM production (NSGW41 H-Mice [1]): comparable | Class-switched IgG, IgG1-4, IgA and IgE production (NSGW41 H-Mice [2]; [4]): drastically increased | NP7-binding IgM and IgG antibody titers (NSGW41 H-Mice [2]; [4]): significantly greater | Number of spleen IgG and IgA class-switched effector, IgD-CD27+ memory B cells and bone marrow CD27+CD38+ plasmablasts/plasma cells (NSGW41 H-Mice [2]; [4]): increased number | IgM serum titers (NSGW41 H-Mice [2]; NP16-CGG and alum i.p., estrogen water (NSGW41 H-Mice) vs plain water (huNSGW41)): comparable | Germinal center B cells (NSGW41 H-Mice [2]; lymph nodes, 10 days post-immunization with NP-CGG, estrogen pre-conditioned vs untreated): two-fold increase | Adverse effects of drinking water containing estradiol (NSGW41 H-Mice [3]): no adverse effects
